Data reported in BindingDB's records for doi:10.1016/s0960-894x(02)00639-x (Monash University (Parkville Campus), 2002).

Columns and labels:
[1] = Inhibitory concentration against [3H]DPCPX binding to Adenosine A1 receptor from DDT1 MF2 cells
[2] = Equilibrium dissociation constant for [3H]DPCPX binding to Adenosine A1 receptor from DDT1 MF2 cell membranes
[3] = as above; remark: listed apart in the source

Compound	IC50 [1]	Kd [2]	IC50 [3]
CCCn1c(=O)c2[nH]c(C3CC4CCC3C4)nc2n(CCCCC(=O)c2ccc(S(=O)(=O)F)cc2)c1=O (stereo not given) [4-[5-(8-Bicyclo[2.2.1]hept-2-yl-2,6-dioxo-1-propyl-1,2,6,7-tetrahydro-purin-3-yl)-pentanoyl]-benzenesulfonyl fluoride]	3.9 nM	0.53 nM	–
CCCn1c(=O)c2[nH]c(C3CCCC3)nc2n(CCCCC(=O)c2ccc(S(=O)(=O)F)cc2)c1=O [4-[5-(8-Cyclopentyl-2,6-dioxo-1-propyl-1,2,6,7-tetrahydro-purin-3-yl)-pentanoyl]-benzenesulfonyl fluoride]	–	0.53 nM	8.7 nM
CCCn1c(=O)c2[nH]c(C3CCCCC3)nc2n(CCCCC(=O)c2ccc(S(=O)(=O)F)cc2)c1=O [4-[5-(8-Cyclohexyl-2,6-dioxo-1-propyl-1,2,6,7-tetrahydro-purin-3-yl)-pentanoyl]-benzenesulfonyl fluoride]	17 nM	–	–
